For experiment [1], the target named is Glycogen synthase kinase-3 beta (Homo sapiens) (UniProt P49841). Nature of the experiment: Inhibition of GSK3beta (unknown origin) at 1 uM incubated for 30 mins in presence of [gamma-33P]ATP by multidrop micro reagent based assay relative to control; values are per cent of control.
The target of experiment [2] is T1, Inhibitor of nuclear factor kappa-B kinase subunit epsilon (Homo sapiens) (UniProt Q14164).
T1 sequence (whole entry): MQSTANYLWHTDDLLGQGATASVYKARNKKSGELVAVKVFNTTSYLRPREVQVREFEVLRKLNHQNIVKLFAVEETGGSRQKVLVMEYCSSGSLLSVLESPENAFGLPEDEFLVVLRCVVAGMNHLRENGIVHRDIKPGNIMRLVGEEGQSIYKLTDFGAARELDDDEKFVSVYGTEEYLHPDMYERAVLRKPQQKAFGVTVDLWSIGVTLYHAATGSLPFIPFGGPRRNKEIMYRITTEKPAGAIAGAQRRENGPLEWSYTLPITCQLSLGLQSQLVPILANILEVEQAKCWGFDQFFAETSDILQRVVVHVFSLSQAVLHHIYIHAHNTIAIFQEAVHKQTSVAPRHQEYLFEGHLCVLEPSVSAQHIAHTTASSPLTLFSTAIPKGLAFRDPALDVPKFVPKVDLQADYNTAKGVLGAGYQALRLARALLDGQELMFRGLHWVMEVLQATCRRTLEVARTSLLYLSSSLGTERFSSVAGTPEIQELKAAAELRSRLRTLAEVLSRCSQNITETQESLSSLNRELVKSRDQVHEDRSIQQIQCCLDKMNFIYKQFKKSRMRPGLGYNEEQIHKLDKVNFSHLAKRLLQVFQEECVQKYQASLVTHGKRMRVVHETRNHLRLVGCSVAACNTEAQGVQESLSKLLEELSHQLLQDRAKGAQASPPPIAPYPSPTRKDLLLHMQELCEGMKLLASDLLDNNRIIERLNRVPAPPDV
Put plainly: Inhibition of IKKepsilon (unknown origin) at 1 uM incubated for 30 mins in presence of [gamma-33P]ATP by multidrop micro reagent based assay relative to control.

The species named for another experiment is Homo sapiens. Put plainly: Inhibition of VEGFR (unknown origin) at 1 uM incubated for 30 mins in presence of [gamma-33P]ATP by multidrop micro reagent based assay relative to control; values are per cent of control.
Experiment [3] concerns the target MAP/microtubule affinity-regulating kinase 3 (Homo sapiens) (UniProt P27448). Put plainly: Inhibition of MARK3 (unknown origin) at 1 uM incubated for 30 mins in presence of [gamma-33P]ATP by multidrop micro reagent based assay relative to control; values are per cent of control.
Experiment [4] concerns the target Dual specificity mitogen-activated protein kinase kinase 1 (Homo sapiens) (UniProt Q02750). Put plainly: Inhibition of MKK1 (unknown origin) at 1 uM incubated for 30 mins in presence of [gamma-33P]ATP by multidrop micro reagent based assay relative to control; values are per cent of control.
In experiment [5] the target is T2, Serine/threonine-protein kinase STK11 (Homo sapiens) (UniProt Q15831).
T2 sequence (whole entry): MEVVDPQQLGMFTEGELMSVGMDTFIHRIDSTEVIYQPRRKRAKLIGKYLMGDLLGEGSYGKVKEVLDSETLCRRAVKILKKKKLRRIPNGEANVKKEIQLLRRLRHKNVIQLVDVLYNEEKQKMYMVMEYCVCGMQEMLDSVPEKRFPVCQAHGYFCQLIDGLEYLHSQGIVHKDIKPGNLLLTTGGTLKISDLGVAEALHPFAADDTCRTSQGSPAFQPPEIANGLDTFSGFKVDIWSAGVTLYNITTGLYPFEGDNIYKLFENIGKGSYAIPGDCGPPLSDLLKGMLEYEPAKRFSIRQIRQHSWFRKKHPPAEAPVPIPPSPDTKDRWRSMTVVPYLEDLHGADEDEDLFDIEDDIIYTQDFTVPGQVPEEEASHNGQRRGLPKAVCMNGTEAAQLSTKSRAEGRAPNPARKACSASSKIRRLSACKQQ
Nature of the experiment: Inhibition of LKB1 (unknown origin) at 1 uM incubated for 30 mins in presence of [gamma-33P]ATP by multidrop micro reagent based assay relative to control.

The target in experiment [6] is T3, Dual specificity tyrosine-phosphorylation-regulated kinase 2 (Homo sapiens) (UniProt Q92630).
T3 sequence (whole entry): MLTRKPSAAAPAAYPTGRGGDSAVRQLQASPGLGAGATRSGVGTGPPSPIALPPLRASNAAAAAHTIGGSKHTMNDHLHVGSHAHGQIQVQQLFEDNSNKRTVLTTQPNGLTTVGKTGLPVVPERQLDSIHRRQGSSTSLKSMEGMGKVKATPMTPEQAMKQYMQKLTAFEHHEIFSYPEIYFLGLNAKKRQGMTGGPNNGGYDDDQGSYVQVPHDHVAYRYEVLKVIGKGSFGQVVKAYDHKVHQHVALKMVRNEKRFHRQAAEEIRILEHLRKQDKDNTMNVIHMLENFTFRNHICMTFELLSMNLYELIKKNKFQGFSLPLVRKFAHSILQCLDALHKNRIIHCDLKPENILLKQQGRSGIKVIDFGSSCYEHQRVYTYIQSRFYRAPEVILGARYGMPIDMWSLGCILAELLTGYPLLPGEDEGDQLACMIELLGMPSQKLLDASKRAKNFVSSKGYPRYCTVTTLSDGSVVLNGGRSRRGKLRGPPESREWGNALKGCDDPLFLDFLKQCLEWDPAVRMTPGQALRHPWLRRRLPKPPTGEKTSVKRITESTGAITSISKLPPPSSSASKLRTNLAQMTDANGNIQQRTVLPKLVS
Nature of the experiment: Inhibition of DYRK2 (unknown origin) at 1 uM incubated for 30 mins in presence of [gamma-33P]ATP by multidrop micro reagent based assay relative to control; values are per cent of control.

Experiment [7] concerns the target Serine/threonine-protein kinase N2 (Homo sapiens) (UniProt Q16513). Nature of the experiment: Inhibition of PRK2 (unknown origin) at 1 uM incubated for 30 mins in presence of [gamma-33P]ATP by multidrop micro reagent based assay relative to control; values are per cent of control.

Among the data in ChEMBL document CHEMBL5705888, “Substrate specificity and inhibitors of LRRK2, a protein kinase mutated in Parkinson's disease” (Biochem J, 2009) are residual activity and inhibition values, retold here.

Sequence of Glycogen synthase kinase-3 beta (Homo sapiens) (P49841 whole entry, looked up): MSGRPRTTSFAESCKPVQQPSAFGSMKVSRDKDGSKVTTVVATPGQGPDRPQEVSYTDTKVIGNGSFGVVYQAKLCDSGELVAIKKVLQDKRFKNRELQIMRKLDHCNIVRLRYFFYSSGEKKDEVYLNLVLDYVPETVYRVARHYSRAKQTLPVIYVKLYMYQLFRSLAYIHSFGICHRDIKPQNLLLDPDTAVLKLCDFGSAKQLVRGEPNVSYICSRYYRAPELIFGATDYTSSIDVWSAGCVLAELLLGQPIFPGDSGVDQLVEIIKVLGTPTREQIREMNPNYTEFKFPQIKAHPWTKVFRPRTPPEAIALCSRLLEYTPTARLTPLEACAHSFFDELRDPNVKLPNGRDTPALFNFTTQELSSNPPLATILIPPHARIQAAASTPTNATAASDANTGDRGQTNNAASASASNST
Sequence of MAP/microtubule affinity-regulating kinase 3 (Homo sapiens) (P27448 whole entry, looked up): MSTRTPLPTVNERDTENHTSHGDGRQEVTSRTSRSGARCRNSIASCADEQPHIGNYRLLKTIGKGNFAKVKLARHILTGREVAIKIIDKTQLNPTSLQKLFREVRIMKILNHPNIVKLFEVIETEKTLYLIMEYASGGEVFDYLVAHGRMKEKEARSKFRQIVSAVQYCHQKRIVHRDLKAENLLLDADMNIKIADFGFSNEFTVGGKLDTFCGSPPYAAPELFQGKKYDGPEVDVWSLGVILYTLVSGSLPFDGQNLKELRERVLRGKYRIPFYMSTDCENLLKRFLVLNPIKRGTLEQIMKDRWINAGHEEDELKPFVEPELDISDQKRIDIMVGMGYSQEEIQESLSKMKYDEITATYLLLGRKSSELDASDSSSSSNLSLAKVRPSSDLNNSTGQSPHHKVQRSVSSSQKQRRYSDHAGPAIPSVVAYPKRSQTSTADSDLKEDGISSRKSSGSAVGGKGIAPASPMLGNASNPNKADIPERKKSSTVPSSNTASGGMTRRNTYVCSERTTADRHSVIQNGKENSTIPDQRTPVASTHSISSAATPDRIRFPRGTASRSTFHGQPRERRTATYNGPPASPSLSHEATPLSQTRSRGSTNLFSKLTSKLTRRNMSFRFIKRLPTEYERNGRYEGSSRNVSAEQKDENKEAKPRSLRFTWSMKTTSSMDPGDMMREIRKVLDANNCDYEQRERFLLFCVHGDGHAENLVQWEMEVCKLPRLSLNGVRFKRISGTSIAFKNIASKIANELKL
Sequence of Serine/threonine-protein kinase N2 (Homo sapiens) (Q16513 whole entry, looked up): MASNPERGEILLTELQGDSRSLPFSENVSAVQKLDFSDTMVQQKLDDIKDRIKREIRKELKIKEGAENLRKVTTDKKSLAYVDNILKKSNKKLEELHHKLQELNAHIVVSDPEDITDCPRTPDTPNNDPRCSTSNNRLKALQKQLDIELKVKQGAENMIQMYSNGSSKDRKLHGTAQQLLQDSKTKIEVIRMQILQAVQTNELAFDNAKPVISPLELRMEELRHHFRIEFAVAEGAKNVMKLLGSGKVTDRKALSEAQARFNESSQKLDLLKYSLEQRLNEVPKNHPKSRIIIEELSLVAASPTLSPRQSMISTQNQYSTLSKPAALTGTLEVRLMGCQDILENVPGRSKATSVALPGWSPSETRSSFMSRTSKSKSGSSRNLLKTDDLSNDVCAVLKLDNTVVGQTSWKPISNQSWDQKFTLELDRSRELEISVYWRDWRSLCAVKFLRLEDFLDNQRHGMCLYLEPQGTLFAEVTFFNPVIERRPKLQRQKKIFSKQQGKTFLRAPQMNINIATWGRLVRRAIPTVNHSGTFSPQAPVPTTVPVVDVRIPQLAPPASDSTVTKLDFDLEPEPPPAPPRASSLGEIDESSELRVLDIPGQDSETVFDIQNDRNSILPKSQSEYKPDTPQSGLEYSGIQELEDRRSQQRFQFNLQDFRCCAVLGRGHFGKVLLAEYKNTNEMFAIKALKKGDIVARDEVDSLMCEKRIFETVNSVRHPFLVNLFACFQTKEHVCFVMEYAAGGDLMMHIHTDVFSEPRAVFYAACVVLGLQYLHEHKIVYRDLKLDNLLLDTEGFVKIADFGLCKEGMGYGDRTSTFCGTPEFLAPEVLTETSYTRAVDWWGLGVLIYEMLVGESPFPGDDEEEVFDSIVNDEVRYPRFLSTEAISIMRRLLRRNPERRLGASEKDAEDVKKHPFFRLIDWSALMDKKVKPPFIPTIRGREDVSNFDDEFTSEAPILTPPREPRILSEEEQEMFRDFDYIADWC
Sequence of Dual specificity mitogen-activated protein kinase kinase 1 (Homo sapiens) (Q02750 whole entry): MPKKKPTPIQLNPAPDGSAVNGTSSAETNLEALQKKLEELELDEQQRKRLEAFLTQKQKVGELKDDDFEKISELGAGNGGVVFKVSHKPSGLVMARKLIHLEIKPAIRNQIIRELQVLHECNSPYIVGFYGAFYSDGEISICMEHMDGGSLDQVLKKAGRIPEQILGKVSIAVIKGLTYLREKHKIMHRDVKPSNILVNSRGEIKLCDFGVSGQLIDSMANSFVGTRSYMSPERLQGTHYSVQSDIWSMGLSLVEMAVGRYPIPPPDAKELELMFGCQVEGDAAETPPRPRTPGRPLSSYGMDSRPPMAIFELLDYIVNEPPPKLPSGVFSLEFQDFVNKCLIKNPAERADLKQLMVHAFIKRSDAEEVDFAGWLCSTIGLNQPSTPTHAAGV

For `CC1=C(C(=O)Nc2cc3cn[nH]c3cc2F)C(c2ccc(C(F)(F)F)cc2)CC(=O)N1` (stereo not given), the residual activity in experiment [1] is 93%; in experiment [2] it was 109%; in the experiment listed under Homo sapiens, 117%; in experiment [3], 98%; in experiment [4] it was 61%; in experiment [6], 92%. Besides, in experiment [7], the residual activity was 40%. In experiment [5], the inhibition – broadly, the share of the control response that was lost under treatment – was 58%.

For the compound `Cc1cncc2cccc(S(=O)(=O)N3CCCNC[C@@H]3C)c12`, the residual activity worked out at 72% in experiment [1]; 80% in experiment [2]; 82% in the experiment filed under Homo sapiens; 56% in experiment [3]; 69% in experiment [4]; 84% in experiment [6]. Besides, the residual activity in experiment [7] is 70%. The inhibition in experiment [5] was 50%.

As for `CCn1c(-c2nonc2N)nc2cnc(Oc3cccc(NC(=O)c4ccc(OCCN5CCOCC5)cc4)c3)cc21` [GSK-269962A], the residual activity came to 12% in experiment [1]; 66% in experiment [2]; 67% in experiment [3]; 54% in experiment [4]; 64% in experiment [6]; 2% in experiment [7]. Besides, the inhibition in experiment [5] came out at 58%.

Take `CCN(CC)CCNC(=O)c1c(C)[nH]c(/C=C2\C(=O)Nc3ccc(F)cc32)c1C`: the residual activity in experiment [2] is 63%; in experiment [7], 81%.
